Measurements taken from US8357811B2, “Crystalline forms of docetaxel and process for preparation thereof” (ScnioPharm Singapore PTE Ltd., priority 2006, dated 2013).

Assay: Stability of crystalline anhydrous docetaxel and docetaxel trihydrate in solvents (FIG. 2)
Assay type: physicochemical
Details: for stability in co-water solvent: co-water solvent (ACN/water/acetic acid) vs non-water solvent
Text: FIG. 2 illustrates the stability of crystalline anhydrous docetaxel and docetaxel trihydrate.

Structure (SMILES) | growth of 7-epi-docetaxel on addition of acetic acid (addition of acetic acid) | stability in co-water solvent | stability in co-water solvent (listed as Docetaxel) | generation of impurity 7-epi-docetaxel (co-water solvent vs non-water solvent) | stability in acetonitrile compared with acetonitrile/water (9/1) (acetonitrile vs acetonitrile/water (9/1)) | stability compared with trihydrated form (1883-12-11, 1883-12-21, 2016-109-05) (in acetonitrile, FIG. 2) | stability compared with trihydrated form (see FIG. 2, solvent not stated at this place)
CC(=O)O[C@@]12CO[C@@H]1C[C@H](O)[C@@]1(C)C(=O)[C@H](O)C3=C(C)[C@@H](OC(=O)[C@H](O)[C@@H](NC(=O)OC(C)(C)C)c4ccccc4)C[C@@](O)([C@@H](OC(=O)c4ccccc4)[C@H]21)C3(C)C [docetaxel] | can be suppressed by the addition of acetic acid | less stable in co-water solvent | more stable in non-water solvent than co-water solvent | generated more rapidly in co-water solvent than in non-water solvent |  |  | 
CC(=O)O[C@@]12CO[C@@H]1C[C@H](O)[C@@]1(C)C(=O)[C@H](O)C3=C(C)[C@@H](OC(=O)[C@H](O)[C@@H](NC(=O)OC(C)(C)C)c4ccccc4)C[C@@](O)([C@@H](OC(=O)c4ccccc4)[C@H]21)C3(C)C [anhydrous form of docetaxel, docetaxel] |  |  |  |  | more stable in acetonitrile than in acetonitrile/water (9/1) | more stable | more stable than trihydrated form
